Data set [1] concerns the target T1, NaV1.6 (Homo sapiens (Human), UniProt Q9UQD0). The data set can be described thus: Electrophysiological Assay (EP), patch voltage clamp, NaV1.6.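 Note: sodium current recorded at ambient temperature, channels held inactivated then briefly repolarized to −150 mV for 20 ms before a test pulse, control currents in 0.5% DMSO.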 Particulars: HEK-293 cells, whole-cell patch clamp. Type of data set: cell-based.
The target in data set [2] is T1, NaV1.6. Nature of the data set: Sodium Influx Assay (Flux), NaV1.6.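 Note: Tetracycline-induced cells, compounds applied for one hour at room temperature with modulators holding channels open, IC50 from percent inhibition of sodium influx.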 Type of data set: cell-based. The note with it: Trex HEK293 cells, ANG2 dye, inactivated state.
Data set [3] addresses NaV1.5 (Homo sapiens (Human), UniProt Q14524). The data set can be described thus: Sodium Influx Assay (Flux), NaV1.5. Particulars: read-out: Flux NaV1.5 IC50; Trex HEK293 cells, ANG2 dye, inactivated state.
Data set [4] has as its target T2, NaV1.1 (Homo sapiens (Human), UniProt P35498). The data set can be described thus: Sodium Influx Assay (Flux), NaV1.1.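 Note: channels co-expressed with human β1 subunit and held open by modulators, cells exposed to compounds for one hour at room temperature, IC50 from percent inhibition of influx.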 Type of data set: cell-based. Particulars: Trex HEK293 cells, ANG2 dye, inactivated state.
Data set [5] concerns the target T2, NaV1.1. The data set can be described thus: Electrophysiological Assay (EP), patch voltage clamp, NaV1.1.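 Note: sodium current block measured at ambient temperature, holding at fully inactivating potential, 20 ms repolarization to −150 mV before test pulse, versus 0.5% DMSO control currents.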 Type of data set: cell-based. The note with it: HEK-293 cells, whole-cell patch clamp.

Where a name gives a salt, the structure may show the parent alone.

T1 sequence (Q9UQD0 whole entry): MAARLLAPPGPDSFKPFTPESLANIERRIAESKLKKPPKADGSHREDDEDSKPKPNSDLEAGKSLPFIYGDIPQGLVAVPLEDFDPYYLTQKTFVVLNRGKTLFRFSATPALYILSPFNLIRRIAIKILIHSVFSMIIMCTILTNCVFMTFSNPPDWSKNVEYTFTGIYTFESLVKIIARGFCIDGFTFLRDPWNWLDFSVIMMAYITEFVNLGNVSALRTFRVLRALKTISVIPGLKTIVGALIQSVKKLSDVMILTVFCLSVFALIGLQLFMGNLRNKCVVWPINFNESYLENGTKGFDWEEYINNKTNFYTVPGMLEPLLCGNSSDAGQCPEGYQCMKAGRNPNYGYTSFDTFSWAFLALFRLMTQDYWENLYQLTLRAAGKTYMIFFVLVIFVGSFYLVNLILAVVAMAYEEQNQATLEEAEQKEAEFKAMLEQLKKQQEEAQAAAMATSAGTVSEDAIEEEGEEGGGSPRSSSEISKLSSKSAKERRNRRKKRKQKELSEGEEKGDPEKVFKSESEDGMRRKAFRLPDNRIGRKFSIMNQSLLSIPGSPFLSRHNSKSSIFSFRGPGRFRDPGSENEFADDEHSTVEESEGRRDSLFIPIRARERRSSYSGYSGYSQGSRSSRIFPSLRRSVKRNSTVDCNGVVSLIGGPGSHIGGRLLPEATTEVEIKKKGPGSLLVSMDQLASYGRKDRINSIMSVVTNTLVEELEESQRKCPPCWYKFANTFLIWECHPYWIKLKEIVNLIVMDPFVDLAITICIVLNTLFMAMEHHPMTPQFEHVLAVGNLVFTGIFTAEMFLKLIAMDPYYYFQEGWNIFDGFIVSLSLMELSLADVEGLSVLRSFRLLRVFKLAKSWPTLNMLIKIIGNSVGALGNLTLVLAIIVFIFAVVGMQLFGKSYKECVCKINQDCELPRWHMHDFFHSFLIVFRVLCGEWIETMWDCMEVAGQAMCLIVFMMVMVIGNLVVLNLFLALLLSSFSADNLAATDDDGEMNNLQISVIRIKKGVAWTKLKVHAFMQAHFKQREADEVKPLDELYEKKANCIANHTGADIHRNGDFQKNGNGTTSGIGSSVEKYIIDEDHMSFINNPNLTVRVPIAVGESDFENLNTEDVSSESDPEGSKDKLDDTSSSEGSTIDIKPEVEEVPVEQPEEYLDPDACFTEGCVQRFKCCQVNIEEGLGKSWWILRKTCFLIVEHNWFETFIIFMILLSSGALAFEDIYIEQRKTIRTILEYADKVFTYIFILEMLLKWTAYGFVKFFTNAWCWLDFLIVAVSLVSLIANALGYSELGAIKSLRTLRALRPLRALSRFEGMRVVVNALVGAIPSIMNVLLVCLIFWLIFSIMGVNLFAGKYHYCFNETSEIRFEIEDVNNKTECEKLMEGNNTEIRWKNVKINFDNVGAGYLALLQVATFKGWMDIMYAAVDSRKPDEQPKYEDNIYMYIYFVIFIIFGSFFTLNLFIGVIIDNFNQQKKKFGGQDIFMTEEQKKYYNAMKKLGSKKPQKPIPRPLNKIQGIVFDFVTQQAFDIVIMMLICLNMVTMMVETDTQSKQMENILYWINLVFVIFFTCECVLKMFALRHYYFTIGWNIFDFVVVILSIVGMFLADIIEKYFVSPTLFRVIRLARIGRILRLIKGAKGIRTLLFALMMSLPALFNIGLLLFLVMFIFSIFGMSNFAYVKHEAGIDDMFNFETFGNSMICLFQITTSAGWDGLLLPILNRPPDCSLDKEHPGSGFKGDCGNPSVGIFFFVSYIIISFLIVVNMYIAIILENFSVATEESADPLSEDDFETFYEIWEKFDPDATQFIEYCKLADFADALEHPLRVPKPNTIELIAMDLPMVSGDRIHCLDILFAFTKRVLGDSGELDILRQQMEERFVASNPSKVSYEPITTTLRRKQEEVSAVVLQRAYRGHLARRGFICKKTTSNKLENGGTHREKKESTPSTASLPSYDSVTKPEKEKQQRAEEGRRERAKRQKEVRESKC
Chain of NaV1.5 (Q14524 other isoform, or with tags, fused parts or gaps): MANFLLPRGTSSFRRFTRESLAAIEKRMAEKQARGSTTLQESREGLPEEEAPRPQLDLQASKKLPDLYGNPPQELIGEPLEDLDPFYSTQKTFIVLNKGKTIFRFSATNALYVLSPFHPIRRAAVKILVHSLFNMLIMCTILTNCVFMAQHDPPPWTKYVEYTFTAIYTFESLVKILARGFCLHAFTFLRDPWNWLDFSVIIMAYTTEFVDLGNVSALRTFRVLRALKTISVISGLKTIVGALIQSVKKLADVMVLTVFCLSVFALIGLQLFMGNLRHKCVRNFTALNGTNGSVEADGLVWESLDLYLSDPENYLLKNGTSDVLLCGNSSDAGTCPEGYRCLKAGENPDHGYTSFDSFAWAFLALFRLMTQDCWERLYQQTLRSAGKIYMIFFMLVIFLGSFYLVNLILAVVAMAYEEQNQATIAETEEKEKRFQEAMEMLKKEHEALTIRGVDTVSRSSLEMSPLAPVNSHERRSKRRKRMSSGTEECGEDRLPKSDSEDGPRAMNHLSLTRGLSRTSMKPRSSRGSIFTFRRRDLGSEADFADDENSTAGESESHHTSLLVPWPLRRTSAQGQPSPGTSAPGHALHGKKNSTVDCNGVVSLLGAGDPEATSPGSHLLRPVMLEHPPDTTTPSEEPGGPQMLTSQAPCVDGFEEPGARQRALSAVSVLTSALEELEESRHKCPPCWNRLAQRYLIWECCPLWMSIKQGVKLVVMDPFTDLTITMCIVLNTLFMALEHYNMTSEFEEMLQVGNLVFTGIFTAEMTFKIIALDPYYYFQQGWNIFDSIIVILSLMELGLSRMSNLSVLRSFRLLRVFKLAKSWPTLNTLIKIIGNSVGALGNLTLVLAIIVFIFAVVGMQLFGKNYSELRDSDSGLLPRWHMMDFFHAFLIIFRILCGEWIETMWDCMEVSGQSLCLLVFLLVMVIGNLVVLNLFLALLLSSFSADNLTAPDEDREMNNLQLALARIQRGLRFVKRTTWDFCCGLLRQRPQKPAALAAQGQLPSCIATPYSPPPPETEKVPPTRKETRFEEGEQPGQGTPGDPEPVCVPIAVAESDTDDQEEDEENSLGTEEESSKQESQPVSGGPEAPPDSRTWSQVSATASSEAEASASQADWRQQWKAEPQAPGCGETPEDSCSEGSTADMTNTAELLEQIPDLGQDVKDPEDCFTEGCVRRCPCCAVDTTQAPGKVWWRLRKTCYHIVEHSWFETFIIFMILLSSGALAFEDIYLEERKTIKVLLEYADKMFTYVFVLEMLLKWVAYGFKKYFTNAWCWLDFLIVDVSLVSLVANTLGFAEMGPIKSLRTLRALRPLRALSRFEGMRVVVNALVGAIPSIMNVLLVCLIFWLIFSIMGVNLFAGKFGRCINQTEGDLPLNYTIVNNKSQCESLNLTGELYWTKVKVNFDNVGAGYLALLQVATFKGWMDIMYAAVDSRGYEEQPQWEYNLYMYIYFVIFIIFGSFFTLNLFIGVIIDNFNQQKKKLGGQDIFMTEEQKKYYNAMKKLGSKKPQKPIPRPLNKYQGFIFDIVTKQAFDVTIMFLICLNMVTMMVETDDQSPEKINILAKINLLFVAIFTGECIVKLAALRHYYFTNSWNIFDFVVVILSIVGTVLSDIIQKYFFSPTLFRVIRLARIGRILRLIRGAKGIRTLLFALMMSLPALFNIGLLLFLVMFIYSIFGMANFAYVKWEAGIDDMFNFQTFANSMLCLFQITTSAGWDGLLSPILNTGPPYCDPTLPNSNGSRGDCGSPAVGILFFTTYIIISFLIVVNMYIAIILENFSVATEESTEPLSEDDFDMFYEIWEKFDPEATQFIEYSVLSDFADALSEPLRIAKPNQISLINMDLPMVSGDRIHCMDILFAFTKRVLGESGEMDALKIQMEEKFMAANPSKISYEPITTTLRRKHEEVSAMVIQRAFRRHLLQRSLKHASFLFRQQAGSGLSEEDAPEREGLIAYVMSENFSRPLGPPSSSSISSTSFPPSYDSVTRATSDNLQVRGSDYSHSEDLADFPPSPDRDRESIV

For “3-chloro-4-(1-phenylethylamino)-N-(1,2,4-thiadiazol-5-yl)benzenesulfonamide [Example 142]”, the half-maximal inhibitory concentration (IC50) in data set [1] is 0.106 µM; in data set [2] it was 0.187 µM; in data set [3], 21.2 µM; in data set [4] it was 3.23 µM; in data set [5], 10 µM.
The corresponding values for “5-chloro-2-fluoro-4-((1-(2-fluorophenyl)ethyl)amino)-N-(thiazol-2-yl)benzenesulfonamide [Example 144]” are 0.034 µM, 0.214 µM, 9.67 µM, 2.54 µM and 0.907 µM.
In the same order, the values of `O=S(=O)(Nc1nccs1)c1ccc(N[C@H](c2ccccc2)C(F)(F)F)c(Cl)c1` [Example 4, (R)-3-chloro-N-(thiazol-2-yl)-4-((2,2,2-trifluoro-1-phenylethyl)amino)benzenesulfonamide formate] are 0.041 µM, 0.794 µM, 7.01 µM, 3.4 µM and 5.31 µM.
The corresponding values for `C[C@H](Nc1cc(F)c(S(=O)(=O)Nc2nccs2)cc1Cl)c1cc(Cl)ccc1F` [Example 8, (S)-5-chloro-4-((1-(5-chloro-2-fluorophenyl)ethyl)amino)-2-fluoro-N-(thiazol-2-yl)benzenesulfonamide] are 0.01 µM, 0.137 µM, 5.37 µM, 1.63 µM and 0.42 µM.
On to `C[C@H](Nc1ccc(S(=O)(=O)Nc2nccs2)c(F)c1Cl)c1ccccc1F` [Example 9, (S)-3-chloro-2-fluoro-4-((1-(2-fluorophenyl)ethyl)amino)-N-(thiazol-2-yl)benzenesulfonamide], for which the 50% inhibitory concentration (IC50) in data set [1] is 0.026 µM; in data set [2], 0.181 µM; in data set [3], 4.22 µM; in data set [4], 2.36 µM; in data set [5], 4.33 µM.
Turning to `C[C@H](Oc1ccc(S(=O)(=O)Nc2nccs2)c(F)c1Cl)c1ccccc1F` [Example 10, (S)-3-chloro-2-fluoro-4-(1-(2-fluorophenyl)ethoxy)-N-(thiazol-2-yl)benzenesulfonamide], the concentration for half-maximal inhibition (IC50) in data set [1] was 0.128 µM; in data set [2] it was 0.461 µM; in data set [3] it was 2.35 µM; in data set [4], 1.63 µM; in data set [5] it was 5.47 µM.
Consider `O=S(=O)(Nc1nccs1)c1cc(Cl)c(OCc2cccc3ccncc23)cc1F` [Example 11, 5-chloro-2-fluoro-4-(isoquinolin-8-ylmethoxy)-N-(thiazol-2-yl)benzenesulfonamide], for which the 50% inhibitory concentration (IC50) in data set [1] was 0.034 µM; in data set [2], 0.255 µM; in data set [3] it was 30 µM; in data set [4], 30 µM; in data set [5] it was 10 µM.
As for `O=S(=O)(Nc1nccs1)c1cc(Cl)c(NCc2ccccc2CN2CCC2)cc1F` [Example 16, 4-((2-(azetidin-1-ylmethyl)benzyl)amino)-5-chloro-2-fluoro-N-(thiazol-2-yl)benzenesulfonamide 2,2,2-trifluoroacetate], the IC50 in data set [1] is 0.004 µM; in data set [2], 0.029 µM; in data set [3], 23.5 µM; in data set [4], 5.41 µM; in data set [5] it was 2.19 µM.
In the case of `O=S(=O)(Nc1cscn1)c1cc(Cl)c(NCc2ccccc2CN2CCC2)cc1F` [Example 19, 4-((2-(azetidin-1-ylmethyl)benzyl)amino)-5-chloro-2-fluoro-N-(thiazol-4-yl)benzenesulfonamide 2,2,2-trifluoroacetate], the half-maximal inhibitory concentration (IC50) in data set [1] was 0.13 µM; in data set [2], 0.425 µM; in data set [3], 18.5 µM; in data set [4], 11.7 µM; in data set [5] it was 10 µM.
Consider `O=S(=O)(Nc1cscn1)c1cc(Cl)c(NC2(c3ccccc3)CC2)cc1F` [Example 20, 5-chloro-2-fluoro-4-((1-phenylcyclopropyl)amino)-N-(thiazol-4-yl)benzenesulfonamide], for which the IC50 in data set [1] is 1.18 µM; in data set [2], 2.05 µM; in data set [3] it was 30 µM; in data set [4] it was 30 µM; in data set [5] it was 10 µM.
Consider `C[C@H](Nc1cc(F)c(S(=O)(=O)Nc2cccc(F)n2)cc1Cl)c1ccccc1F` [Example 22, (S)-5-chloro-2-fluoro-4-((1-(2-fluorophenyl)ethyl)amino)-N-(6-fluoropyridin-2-yl)benzenesulfonamide], for which the IC50 in data set [1] was 0.259 µM; in data set [2], 1.3 µM; in data set [3] it was 4.86 µM; in data set [4], 4.29 µM; in data set [5] it was 9 µM.
`C[C@H](Nc1cc(F)c(S(=O)(=O)Nc2nccs2)cc1F)c1ccccc1F` [Example 25, (S)-2,5-difluoro-4-((1-(2-fluorophenyl)ethyl)amino)-N-(thiazol-2-yl)benzenesulfonamide]: the IC50 in data set [1] was 0.057 µM; in data set [2], 0.175 µM; in data set [3], 10.3 µM; in data set [4], 1.87 µM; in data set [5], 2.52 µM.
In the same order, the values of `C[C@H](Oc1cc(F)c(S(=O)(=O)Nc2nccs2)cc1F)c1ccccc1F` [Example 26, (S)-2,5-difluoro-4-(1-(2-fluorophenyl)ethoxy)-N-(thiazol-2-yl)benzenesulfonamide] are 0.113 µM, 0.742 µM, 3.45 µM, 4.74 µM and 6.75 µM.
Regarding `C[C@H](Nc1cc(F)c(S(=O)(=O)Nc2nccs2)c(F)c1)c1ccccc1F` [Example 27, (S)-2,6-difluoro-4-((1-(2-fluorophenyl)ethyl)amino)-N-(thiazol-2-yl)benzenesulfonamide], the IC50 in data set [1] turned out to be 0.012 µM; in data set [2] it was 0.069 µM; in data set [3] it was 8.49 µM; in data set [4] it was 0.476 µM; in data set [5], 0.112 µM.
In the same order, the values of `CC[C@@H](Nc1ccc(S(=O)(=O)Nc2ncns2)cc1Cl)c1ccccc1` [Example 31, (R)-3-chloro-4-((1-phenylpropyl)amino)-N-(1,2,4-thiadiazol-5-yl)benzenesulfonamide] are 0.118 µM, 0.917 µM, 16.9 µM, 6.17 µM and 10 µM.
`CC[C@@H](Nc1cc(F)c(S(=O)(=O)Nc2nccs2)cc1Cl)c1ccccc1` [Example 39, (R)-5-chloro-2-fluoro-4-((1-phenylpropyl)amino)-N-(thiazol-2-yl)benzenesulfonamide]: the IC50 in data set [1] stood at 0.285 µM; in data set [2], 0.791 µM; in data set [3], 6.81 µM; in data set [4], 2.35 µM; in data set [5], 1.85 µM.
The corresponding values for `CC[C@H](Nc1cc(F)c(S(=O)(=O)Nc2nccs2)cc1Cl)c1ccccc1` [Example 40, (S)-5-chloro-2-fluoro-4-((1-phenylpropyl)amino)-N-(thiazol-2-yl)benzenesulfonamide] are 0.024 µM, 0.123 µM, 7.9 µM, 0.637 µM and 0.182 µM.
The corresponding values for `O=S(=O)(Nc1nccs1)c1cc(Cl)c(NC(CC(F)(F)F)c2ccccc2)cc1F` (stereo not shown) [Example 41, 5-chloro-2-fluoro-N-(thiazol-2-yl)-4-((3,3,3-trifluoro-1-phenylpropyl)amino)benzenesulfonamide] are 0.01 µM, 0.07 µM, 11.8 µM, 0.364 µM and 0.031 µM.
Turning to `C[C@H](Nc1cc(F)c(S(=O)(=O)Nc2nccs2)cc1Cl)C1CCCCC1` [Example 42, (S)-5-chloro-4-((1-cyclohexylethyl)amino)-2-fluoro-N-(thiazol-2-yl)benzenesulfonamide], the half-inhibitory concentration (IC50) stood at 0.305 µM in data set [1]; 3.03 µM in data set [2]; 14.4 µM in data set [3]; 5.65 µM in data set [4]; 6.77 µM in data set [5].
In the same order, the values of `O=S(=O)(Nc1nccs1)c1cc(Cl)c(NC2(c3ccccc3)CC2)cc1F` [Example 43, 5-chloro-2-fluoro-4-((1-phenylcyclopropyl)amino)-N-(thiazol-2-yl)benzenesulfonamide] are 0.028 µM, 0.191 µM, 11.1 µM, 2.14 µM and 4.1 µM.
As for `CC[C@H](Nc1ccc(S(=O)(=O)Nc2nccs2)cc1)c1ccccc1` [Example 84, (S)-4-((1-phenylpropyl)amino)-N-(thiazol-2-yl)benzenesulfonamide], the IC50 in data set [4] stood at 2.41 µM; in data set [5], 10 µM.
As for `CCC(c1ccccc1)N(C)c1ccc(S(=O)(=O)Nc2nccs2)cc1Cl` (stereo not shown) [Example 90, 3-chloro-4-(methyl(1-phenylpropyl)amino)-N-(thiazol-2-yl)benzenesulfonamide], the IC50 was determined as 4.05 µM in data set [4] and 2.01 µM in data set [5].
Consider `Cc1c(NCc2ccccc2CN2CCC2)cc(F)c(S(=O)(=O)Nc2ncns2)c1F` [Example 330, 4-((2-(azetidin-1-ylmethyl)benzyl)amino)-2,6-difluoro-3-methyl-N-(1,2,4-thiadiazol-5-yl)benzenesulfonamide], for which the half-maximal inhibitory concentration (IC50) in data set [1] stood at 0.001 µM; in data set [2], 0.001 µM; in data set [3] it was 30 µM; in data set [4] it was 2 µM.
Take `O=S(=O)(Nc1cscn1)c1cc(Cl)c(NCc2c(F)ccc3cn[nH]c23)cc1F` [Example 334, 5-chloro-2-fluoro-4-(((6-fluoro-1H-indazol-7-yl)methyl)amino)-N-(thiazol-4-yl)benzenesulfonamide formate]: the half-inhibitory concentration (IC50) in data set [1] turned out to be 0.002 µM; in data set [2], 0.029 µM; in data set [3], 30 µM; in data set [4], 4.65 µM.

Source of the values: patent US11174268B2, “Benzenesulfonamide compouds and their use as therapeutic agents” (Xenon Pharmaceuticals Inc., priority 2016, dated 2021).
